Here are results for one compound from PMC11931052, “Efficacy of dispirotripiperazine PDSTP in a golden Syrian hamster model of SARS-CoV-2 infection” (Frontiers in Microbiology, 2025).

For the test, the system named is SARS-CoV-2 BA.4/5 variant. In kind it is cell-based. Particulars: Calu-3 cells; PDSTP 20 and 4 μM; plaque assay.

For `Cc1nc(N2CC[N+]3(CC2)CC[N+]2(CCNCC2)CC3)c([N+](=O)[O-])c(N2CC[N+]3(CC2)CC[N+]2(CCNCC2)CC3)n1.Cl.Cl.O.O.O.O.O.O.O.O.O.[Cl-].[Cl-].[Cl-].[Cl-]` [PDSTP, 3,3′-(2-methyl-5-nitropyrimidine-4,6-diyl)bis-3,12-diaza-6,9-diazonia-dispiro[5.2.5.2]hexadecane tetrachloride dihydrochloride nonahydrate], the “Effect on viral titers, BA.4/5 variant” value is “strongly reduce viral titers”.
